Data published in ChEMBL document CHEMBL4665820, “Discovery of VU6027459: A First-in-Class Selective and CNS Penetrant mGlu Positive Allosteric Modulator Tool Compound” (ACS Med Chem Lett, 2020).

What was measured:
[1] = biological target: Alpha-1A adrenergic receptor (Homo sapiens) (UniProt P35348); experiment: Displacement of [3H]-Prazosin from human recombinant adrenergic alpha 1A receptor at 10 uM incubated for 60 mins by scintillation counting analysis relative to control
[2] = biological target: Cannabinoid receptor 1 (Homo sapiens) (UniProt P21554); experiment: Displacement of [3H]-SR141716A from human recombinant full length Cannabinoid CB1 receptor at 10 uM incubated for 60 mins by scintillation counting analysis relative to control
[3] = biological target: Metabotropic glutamate receptor 7 (Rattus norvegicus, UniProt P35400); experiment: Positive allosteric modulation of rat mGlu7 receptor expressed in HEK293 cells co-expressing Gai5 assessed as potentiation of L-AP4-induced calcium mobilization preincubated for 140 secs and treated with EC20 L-AP4 for 125 secs and followed by subsequent addition of EC80 L-AP4 by Fluo-4-AM dye based fluorescence assay; assay type: functional, cell-based; settings: read-out: EC50
[4] = biological target: Mu-type opioid receptor (Homo sapiens) (UniProt P35372); experiment: Displacement of [3H]DAMGO from human recombinant mu receptor at 10 uM after 120 mins by scintillation counting analysis relative to control
[5] = biological target: Cysteinyl leukotriene receptor 1 (Homo sapiens) (UniProt Q9Y271); experiment: Displacement of [3H]-LTD4 from human recombinant CysLT1 Leukotriene receptor at 10 uM incubated for 60 mins by scintillation counting analysis relative to control
[6] = biological target: Melatonin receptor type 1A (Homo sapiens) (UniProt P48039); experiment: Displacement of [125I][…] from human recombinant MT1 receptor at 10 uM after 240 mins by scintillation counting analysis relative to control
[7] = biological target: 5-hydroxytryptamine receptor 3A (Homo sapiens) (UniProt P46098); experiment: Displacement of [3H]BRL 43694 from human recombinant 5-HT3 receptor at 10 uM after 120 mins by scintillation counting analysis relative to control
Rattus norvegicus [8] = species on record: Rattus norvegicus; experiment: Displacement of [125I]-Omega -conotoxin GIVA from N-type calcium channel in rat brain membrane at 10 uM incubated for 30 mins by scintillation counting analysis relative to control; assay type: cell membranes
[9] = biological target: Endothelin-1 receptor (Homo sapiens) (UniProt P25101); experiment: Displacement of [125I]-endothelin-1 from human recombinant ETA receptor at 10 uM after 120 mins by scintillation counting analysis relative to control
[10] = biological target: Neuropeptide Y receptor type 1 (Homo sapiens) (UniProt P25929); experiment: Displacement of [125I]peptide YY from human Y1 receptor at 10 uM after 120 mins by scintillation counting analysis relative to control
[11] = biological target: Prostaglandin E2 receptor EP4 subtype (Homo sapiens) (UniProt P35408); experiment: Displacement of [3H]-Prostaglandin E2 from human recombinant prostanoid receptor EP4 at 10 uM incubated for 120 mins by scintillation counting analysis relative to control
[12] = biological target: Delta-type opioid receptor (Homo sapiens) (UniProt P41143); experiment: Displacement of [3H]DADLE from human recombinant Delta opioid receptor at 10 uM after 60 mins by scintillation counting analysis relative to control
[13] = biological target: Substance-P receptor (Homo sapiens) (UniProt P25103); experiment: Displacement of [125I]-Substance P LYS3 from human recombinant tachykinin NK1 receptor at 10 uM incubated for 30 mins by scintillation counting analysis relative to control
[14] = biological target: Histamine H2 receptor (Homo sapiens) (UniProt P25021); experiment: Displacement of [125I]APT from human recombinant histamine H2 receptor at 10 uM after 120 mins by scintillation counting analysis relative to control
[15] = biological target: 5-hydroxytryptamine receptor 2B (Homo sapiens) (UniProt P41595); experiment: Displacement of [125I]+/-DOI from human recombinant 5-HT2B receptor at 10 uM after 60 mins by scintillation counting analysis relative to control
[16] = biological target: Acetylcholine receptor subunit alpha (Homo sapiens) (UniProt P02708); experiment: Displacement of [125I] alpha-Bungarotoxin from human nicotinic acetylcholine alpha 1 receptor at 10 uM incubated for 120 mins by radioligand binding assay relative to control
Rattus norvegicus [17] = species on record: Rattus norvegicus; experiment: Displacement of [3H]-Flunitrazepam from GABAA channel flunitrazepam binding site in rat brain at 10 uM incubated for 60 mins by scintillation counting analysis relative to control; assay type: tissue-based
[18] = biological target: Interleukin-1 receptor type 1 (Homo sapiens) (UniProt P14778); experiment: Displacement of [125I]-Interleukin 1beta from human interleukin IL-1 R1 receptor at 10 uM incubated for 120 mins by scintillation counting analysis relative to control
[19] = biological target: Histamine H3 receptor (Homo sapiens) (UniProt Q9Y5N1); experiment: Displacement of [3H]-N-alpha-Methylhistamine from human recombinant Histamine H3 receptor at 10 uM incubated for 60 mins by scintillation counting analysis relative to control
[20] = biological target: Sigma non-opioid intracellular receptor 1 (Homo sapiens, UniProt Q99720); experiment: Displacement of [3H]-Pentazocine from human recombinant sigma 1 receptor at 10 uM incubated for 120 mins by scintillation counting analysis relative to control
Rattus norvegicus [21] = species on record: Rattus norvegicus; experiment: Displacement of [3H]-MDL105519 from NMDA glutamate receptor glycine binding site in rat at 10 uM incubated for 30 mins by scintillation counting analysis relative to control
[22] = biological target: Kappa-type opioid receptor (Homo sapiens) (UniProt P41145); experiment: Displacement of [3H]U69593 from human kappa receptor at 10 uM after 60 mins by scintillation counting analysis relative to control
Rattus norvegicus [23] = species on record: Rattus norvegicus; experiment: Displacement of [3H]-GABA in GABA transporter in rat brain membrane at 10 uM incubated for 30 mins by scintillation counting analysis elative to control; assay type: cell membranes
[24] = biological target: Adenosine receptor A3 (Homo sapiens) (UniProt P0DMS8); experiment: Displacement of [125I]AB-MECA from human recombinant adenosine A3 receptor at 10 uM after 120 mins by scintillation counting analysis relative to control
[25] = biological target: D(3) dopamine receptor (Homo sapiens) (UniProt P35462); experiment: Displacement of [3H]-methyl-spiperone from human recombinant Dopamine D3 receptor at 10 uM incubated for 60 mins by scintillation counting analysis relative to control
[26] = biological target: Beta-2 adrenergic receptor (Homo sapiens) (UniProt P07550); experiment: Displacement of [3H]-(-)CGP 12177 from human recombinant adrenergic beta 2 receptor at 10 uM incubated for 120 mins by scintillation counting analysis relative to control
Rattus norvegicus [27] = species on record: Rattus norvegicus; experiment: Displacement of [3H]-Diltiazem from L-type calcium channel benzothiazepine binding site in rat brain at 10 uM incubated for 180 mins by scintillation counting analysis relative to control; assay type: tissue-based
[28] = biological target: Alpha-1D adrenergic receptor (Homo sapiens) (UniProt P25100); experiment: Displacement of [3H]-Prazosin from human recombinant adrenergic alpha 1D receptor at 10 uM incubated for 60 mins by scintillation counting analysis relative to control
[29] = biological target: Muscarinic acetylcholine receptor M1 (Homo sapiens) (UniProt P11229); experiment: Displacement of [125I]pirenzepine from human recombinant M1 receptor at 10 uM after 60 mins by scintillation counting analysis relative to control
[30] = biological target: D(1A) dopamine receptor (Homo sapiens) (UniProt P21728); experiment: Displacement of [3H]-SCH 23390 from human recombinant dopamine D1 receptor at 10 uM by scintillation counting 60 mins analysis relative to control
Chain of D(1A) dopamine receptor (Homo sapiens) (P21728 whole entry): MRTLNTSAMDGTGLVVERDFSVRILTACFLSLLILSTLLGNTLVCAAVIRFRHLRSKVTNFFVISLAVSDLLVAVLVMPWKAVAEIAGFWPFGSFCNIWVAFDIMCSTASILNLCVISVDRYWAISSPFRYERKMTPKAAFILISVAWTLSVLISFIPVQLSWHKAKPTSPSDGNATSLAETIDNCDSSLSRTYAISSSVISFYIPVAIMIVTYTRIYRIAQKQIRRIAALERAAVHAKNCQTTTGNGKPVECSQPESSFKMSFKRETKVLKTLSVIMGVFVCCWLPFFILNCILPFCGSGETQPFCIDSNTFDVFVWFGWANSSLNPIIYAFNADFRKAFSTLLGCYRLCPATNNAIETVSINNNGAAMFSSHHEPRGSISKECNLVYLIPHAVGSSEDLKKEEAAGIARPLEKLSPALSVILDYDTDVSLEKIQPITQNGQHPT

Chain of Melatonin receptor type 1A (Homo sapiens) (P48039 whole entry): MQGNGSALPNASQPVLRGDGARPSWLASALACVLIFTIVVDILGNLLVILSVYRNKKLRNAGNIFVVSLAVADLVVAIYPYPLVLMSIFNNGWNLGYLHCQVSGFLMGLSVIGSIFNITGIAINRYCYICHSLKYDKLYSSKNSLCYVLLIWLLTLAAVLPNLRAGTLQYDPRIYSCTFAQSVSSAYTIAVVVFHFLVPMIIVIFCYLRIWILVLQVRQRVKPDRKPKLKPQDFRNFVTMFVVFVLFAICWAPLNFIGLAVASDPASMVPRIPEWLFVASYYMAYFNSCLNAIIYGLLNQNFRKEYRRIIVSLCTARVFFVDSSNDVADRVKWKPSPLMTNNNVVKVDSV
Chain of Delta-type opioid receptor (Homo sapiens) (P41143 whole entry): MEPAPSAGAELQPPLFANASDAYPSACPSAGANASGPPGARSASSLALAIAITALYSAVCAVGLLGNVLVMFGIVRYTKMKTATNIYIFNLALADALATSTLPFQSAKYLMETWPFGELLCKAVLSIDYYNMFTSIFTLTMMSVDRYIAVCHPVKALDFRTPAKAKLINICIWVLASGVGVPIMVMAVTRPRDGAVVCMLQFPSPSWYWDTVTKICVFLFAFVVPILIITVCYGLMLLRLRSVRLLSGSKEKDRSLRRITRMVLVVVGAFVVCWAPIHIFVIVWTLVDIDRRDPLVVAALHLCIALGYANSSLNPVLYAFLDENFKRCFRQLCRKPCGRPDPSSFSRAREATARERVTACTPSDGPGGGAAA
Chain of Histamine H3 receptor (Homo sapiens) (Q9Y5N1 whole entry): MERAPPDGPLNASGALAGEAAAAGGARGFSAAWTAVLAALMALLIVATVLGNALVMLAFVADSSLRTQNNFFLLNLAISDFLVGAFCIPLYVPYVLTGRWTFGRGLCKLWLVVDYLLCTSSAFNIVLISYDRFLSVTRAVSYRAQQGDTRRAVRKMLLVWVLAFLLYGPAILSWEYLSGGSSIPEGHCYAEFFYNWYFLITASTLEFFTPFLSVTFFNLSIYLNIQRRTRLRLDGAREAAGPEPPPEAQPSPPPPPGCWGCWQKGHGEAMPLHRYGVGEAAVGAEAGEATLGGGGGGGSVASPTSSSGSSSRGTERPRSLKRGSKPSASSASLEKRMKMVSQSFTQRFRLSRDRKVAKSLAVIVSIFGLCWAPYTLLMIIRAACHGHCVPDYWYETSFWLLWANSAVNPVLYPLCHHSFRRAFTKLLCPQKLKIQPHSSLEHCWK
Chain of Cannabinoid receptor 1 (Homo sapiens) (P21554 whole entry): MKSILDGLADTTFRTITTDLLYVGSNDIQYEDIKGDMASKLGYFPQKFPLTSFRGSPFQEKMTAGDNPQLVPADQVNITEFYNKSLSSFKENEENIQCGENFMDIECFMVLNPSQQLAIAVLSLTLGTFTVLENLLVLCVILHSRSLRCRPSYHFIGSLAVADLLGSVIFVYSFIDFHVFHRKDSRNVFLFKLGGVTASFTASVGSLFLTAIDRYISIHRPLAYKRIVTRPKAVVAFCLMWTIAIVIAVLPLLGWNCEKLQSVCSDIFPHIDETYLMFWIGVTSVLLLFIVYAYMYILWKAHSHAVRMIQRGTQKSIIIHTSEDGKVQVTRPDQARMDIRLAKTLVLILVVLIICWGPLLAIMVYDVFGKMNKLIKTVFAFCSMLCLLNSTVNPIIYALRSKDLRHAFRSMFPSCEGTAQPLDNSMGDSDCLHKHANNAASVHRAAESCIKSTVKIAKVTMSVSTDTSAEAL
Chain of Metabotropic glutamate receptor 7 (P35400 whole entry): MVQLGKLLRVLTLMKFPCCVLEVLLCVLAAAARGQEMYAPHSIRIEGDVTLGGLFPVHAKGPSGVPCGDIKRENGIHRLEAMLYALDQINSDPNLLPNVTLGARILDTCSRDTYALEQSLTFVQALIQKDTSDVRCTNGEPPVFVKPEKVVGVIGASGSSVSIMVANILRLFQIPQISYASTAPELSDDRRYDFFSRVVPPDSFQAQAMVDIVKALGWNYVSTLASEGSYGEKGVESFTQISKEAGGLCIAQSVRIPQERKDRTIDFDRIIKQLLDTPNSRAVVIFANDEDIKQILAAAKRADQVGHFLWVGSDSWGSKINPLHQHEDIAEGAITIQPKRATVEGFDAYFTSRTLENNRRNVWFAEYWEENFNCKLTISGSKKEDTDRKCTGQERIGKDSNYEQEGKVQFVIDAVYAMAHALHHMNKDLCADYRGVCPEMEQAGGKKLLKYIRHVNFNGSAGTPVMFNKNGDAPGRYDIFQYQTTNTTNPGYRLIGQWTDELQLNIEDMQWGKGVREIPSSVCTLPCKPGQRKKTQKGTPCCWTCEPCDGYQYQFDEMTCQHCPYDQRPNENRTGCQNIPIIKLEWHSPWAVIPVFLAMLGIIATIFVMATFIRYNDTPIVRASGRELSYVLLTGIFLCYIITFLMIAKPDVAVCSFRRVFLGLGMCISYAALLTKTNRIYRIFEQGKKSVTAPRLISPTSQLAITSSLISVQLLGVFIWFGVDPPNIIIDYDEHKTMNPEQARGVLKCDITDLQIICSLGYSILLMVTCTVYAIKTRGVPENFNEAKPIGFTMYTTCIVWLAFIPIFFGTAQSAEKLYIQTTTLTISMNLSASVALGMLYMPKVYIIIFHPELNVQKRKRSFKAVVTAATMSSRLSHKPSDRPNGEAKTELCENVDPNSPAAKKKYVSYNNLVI
Chain of Interleukin-1 receptor type 1 (Homo sapiens) (P14778 whole entry): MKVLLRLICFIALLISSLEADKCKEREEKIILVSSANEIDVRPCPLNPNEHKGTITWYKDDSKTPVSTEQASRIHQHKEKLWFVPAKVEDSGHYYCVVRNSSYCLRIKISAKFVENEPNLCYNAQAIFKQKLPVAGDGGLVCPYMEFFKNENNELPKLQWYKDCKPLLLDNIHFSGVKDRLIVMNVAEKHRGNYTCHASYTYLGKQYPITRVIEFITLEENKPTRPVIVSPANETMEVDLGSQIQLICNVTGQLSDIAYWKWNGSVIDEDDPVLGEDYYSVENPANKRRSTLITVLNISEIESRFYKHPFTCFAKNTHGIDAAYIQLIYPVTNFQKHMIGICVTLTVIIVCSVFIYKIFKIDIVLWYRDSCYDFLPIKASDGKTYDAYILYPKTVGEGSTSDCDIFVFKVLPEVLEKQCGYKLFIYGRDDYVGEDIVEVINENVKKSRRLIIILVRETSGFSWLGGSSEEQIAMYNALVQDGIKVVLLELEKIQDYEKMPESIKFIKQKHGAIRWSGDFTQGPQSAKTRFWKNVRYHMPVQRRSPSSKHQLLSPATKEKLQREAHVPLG
Chain of Adenosine receptor A3 (Homo sapiens) (P0DMS8 whole entry): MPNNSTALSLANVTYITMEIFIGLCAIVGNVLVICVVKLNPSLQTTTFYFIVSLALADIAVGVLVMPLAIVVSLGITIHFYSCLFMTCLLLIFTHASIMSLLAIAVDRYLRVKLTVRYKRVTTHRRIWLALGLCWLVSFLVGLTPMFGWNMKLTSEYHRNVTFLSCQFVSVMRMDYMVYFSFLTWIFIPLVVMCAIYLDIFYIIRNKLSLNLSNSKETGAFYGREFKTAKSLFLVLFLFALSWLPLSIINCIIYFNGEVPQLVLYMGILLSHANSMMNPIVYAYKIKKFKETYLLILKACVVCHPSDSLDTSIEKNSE
Chain of Mu-type opioid receptor (Homo sapiens) (P35372 whole entry): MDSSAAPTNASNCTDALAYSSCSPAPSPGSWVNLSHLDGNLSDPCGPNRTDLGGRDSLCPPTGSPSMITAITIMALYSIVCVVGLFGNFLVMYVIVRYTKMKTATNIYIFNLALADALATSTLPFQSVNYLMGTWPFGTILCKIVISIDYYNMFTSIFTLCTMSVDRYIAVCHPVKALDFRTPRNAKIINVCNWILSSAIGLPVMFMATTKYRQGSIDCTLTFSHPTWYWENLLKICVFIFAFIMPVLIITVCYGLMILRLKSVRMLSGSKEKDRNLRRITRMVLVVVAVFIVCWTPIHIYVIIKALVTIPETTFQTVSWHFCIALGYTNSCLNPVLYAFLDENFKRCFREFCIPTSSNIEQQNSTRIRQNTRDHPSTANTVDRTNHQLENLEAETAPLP
Chain of 5-hydroxytryptamine receptor 2B (Homo sapiens) (P41595 whole entry): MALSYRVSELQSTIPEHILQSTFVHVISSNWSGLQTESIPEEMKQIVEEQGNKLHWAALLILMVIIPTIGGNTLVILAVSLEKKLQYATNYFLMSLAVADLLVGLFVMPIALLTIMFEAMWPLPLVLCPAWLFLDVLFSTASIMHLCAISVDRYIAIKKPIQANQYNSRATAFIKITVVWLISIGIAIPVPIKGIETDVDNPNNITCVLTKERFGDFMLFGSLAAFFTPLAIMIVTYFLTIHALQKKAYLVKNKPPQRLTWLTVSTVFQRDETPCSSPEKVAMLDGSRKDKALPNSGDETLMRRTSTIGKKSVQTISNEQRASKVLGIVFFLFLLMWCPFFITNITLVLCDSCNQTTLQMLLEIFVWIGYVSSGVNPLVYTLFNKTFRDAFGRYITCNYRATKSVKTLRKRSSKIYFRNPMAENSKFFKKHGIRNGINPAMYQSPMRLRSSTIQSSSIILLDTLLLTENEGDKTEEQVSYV

COc1cc(F)cc2c(N3CCN(c4ccccc4F)CC3)c(C#N)cnc12
inhibition ([1]; tested as the 2H-labelled form): < 50%
inhibition ([2]; tested as the 2H-labelled form): < 50%
EC50 [3]: 1400 nM
inhibition ([4]; tested as the 2H-labelled form): < 50%
inhibition ([5]; tested as the 2H-labelled form): < 50%
inhibition ([6]; tested as the 2H-labelled form): < 50%
inhibition ([7]; tested as the 2H-labelled form): < 50%
inhibition (Rattus norvegicus [8]; tested as the 2H-labelled form): < 50%
inhibition ([9]; tested as the 2H-labelled form): < 50%
inhibition ([10]; tested as the 2H-labelled form): < 50%
inhibition ([11]; tested as the 2H-labelled form): < 50%
inhibition ([12]; tested as the 2H-labelled form): < 50%
inhibition ([13]; tested as the 2H-labelled form): < 50%
inhibition ([14]; tested as the 2H-labelled form): < 50%
inhibition ([15]; tested as the 2H-labelled form): < 50%
inhibition ([16]; tested as the 2H-labelled form): < 50%
inhibition (Rattus norvegicus [17]; tested as the 2H-labelled form): < 50%
inhibition ([18]; tested as the 2H-labelled form): < 50%
inhibition ([19]; tested as the 2H-labelled form): < 50%
inhibition ([20]; tested as the 2H-labelled form): 77%
inhibition (Rattus norvegicus [21]; tested as the 2H-labelled form): < 50%
inhibition ([22]; tested as the 2H-labelled form): < 50%
inhibition (Rattus norvegicus [23]; tested as the 2H-labelled form): < 50%
inhibition ([24]; tested as the 2H-labelled form): < 50%
inhibition ([25]; tested as the 2H-labelled form): < 50%
inhibition ([26]; tested as the 2H-labelled form): < 50%
inhibition (Rattus norvegicus [27]; tested as the 2H-labelled form): < 50%
inhibition ([28]; tested as the 2H-labelled form): < 50%
inhibition ([29]; tested as the 2H-labelled form): < 50%
inhibition ([30]; tested as the 2H-labelled form): < 50%

COc1cccc2c(N3CCN(c4ccccc4F)CC3)c(C#N)cnc12
inhibition [1]: < 50%
inhibition [2]: < 50%
EC50 [3]: 1100 nM
inhibition [4]: < 50%
inhibition [5]: < 50%
inhibition [6]: < 50%
inhibition [7]: < 50%
inhibition (Rattus norvegicus [8]): < 50%
inhibition [9]: < 50%
inhibition [10]: < 50%
inhibition [11]: < 50%
inhibition [12]: < 50%
inhibition [13]: < 50%
inhibition [14]: < 50%
inhibition [15]: < 50%
inhibition [16]: < 50%
inhibition (Rattus norvegicus [17]): < 50%
inhibition [18]: < 50%
inhibition [19]: < 50%
inhibition [20]: < 50%
inhibition (Rattus norvegicus [21]): < 50%
inhibition [22]: < 50%
inhibition (Rattus norvegicus [23]): < 50%
inhibition [24]: < 50%
inhibition [25]: < 50%
inhibition [26]: < 50%
inhibition (Rattus norvegicus [27]): < 50%
inhibition [28]: < 50%
inhibition [29]: < 50%
inhibition [30]: < 50%
